According to US4921960A, “Quinoline thioethers” (priority 1987, dated 1990):

Legend:
[1] = system: electroshock-induced convulsions in rats; test: Electroshock-induced lethal convulsions; assay type: in vivo, rat
[2] = system: strychnine induced convulsions in rats; test: Strychnine induced lethal convulsions; assay type: in vivo, rat
[3] = system: pentametazol induced convulsions in rats; test: Pentametazol induced convulsions; assay type: in vivo, rat; details: for Deaths of pretreated animals / Effect on pentametazol convulsions: 10 mg/kg prior to 120 mg/kg s.c. pentametazol
[4] = system: picrotoxin induced convulsions in rats; assay type: in vivo, rat
Male CFY rats = test: "Conflict" test: water consumption of food-deprived rats without punishment and in punished situation (anti-anxiety versus sedative effect); assay type: in vivo, rat; details: for Sedative dose (numerator of ratio): as printed in b54 without unit, see Tables I and III; for Water consumption (ml) punished situation / Water consumption (ml) without punishment: 30 min prior; for Ratio between the sedative and anxiolytic dose: Tables I and III; for Anxiolytic effect in presence of RO-15-1788 (selective benzodiazepine receptor antagonist): Tables II and IV
Method: The essential strategy for measuring the anti-anxiety effecct of a drug is to check its activity in a conflict situation. We elicit a rewarded response, then suppress that response by punishing it when it occurs and the anti-anxiety effect is measured by the drug-induced increase in punished responding, whereas the sedative effect is measured by the drug-induced decrease of unpunished responding.
This means that when we circuit the drinking tube and the grid floor of the cage and the rat is regularly shocked by trying to drink, the very hungry animal, which cannot eat without drinking, is maximally forced to overcome the hindrance. This is a sensitive test to check the anti-anxiety effect of a compound.
Male CFY rats, weighing 230-250 g, fed with standard food pellets and supplied with tap water ad libitum, were kept under controlled standard environmental conditions (room temperature between 22°-24° C.) in groups of ten for two weeks until used in the experiment. The rats kept in single cages during starvation were deprived of food for 96 hours and supplied with tap water ad libitum before the experiment.
Another aspect of the selection of the animals for the experiment was their visible physical fitness and normal activity after starvation.
A clear Plexiglass box (39×27×12 cm) with a stainless-steel grid floor supplied with a tray for the food pellets and with a drinking tube was used for the experiment. The grid floor, the drinking tube and an electric stimulator (Grass S48) were connected and electric shocks in this circuit were delivered for 10 s duration with 20 s intervals. The parameters of the current (100 V; 25 ohm; 7.5 ms; 5 Hz) were empirically selected using those electric shocks which inhibited the water consumption of the very hungry rats to one third of the control (unpunished) level.
The rats spend one hour in the apparatus after 96 hours of food deprivation.
The drugs were administered parenterally in doses of 0.5 ml/100 g body weight. We refrained from the oral administration of the compounds because of the long term food deprivation.
The Student t-test was used for statistical analysis. The anxiolytic effect was established in punished animals and the sedative effect in unpunished rats.

benzodiazepine receptors = test: In vitro binding, 3H-Diazepam displacement on rat brain membrane preparation; details: 2 nM 3H-Diazepam, rat cortex membranes; for Displacement of 3H-Diazepam from its receptor: 1 hr at 0-4 °C; for IC50 value: both drugs compared
Method: The in vitro binding of compound A in comparison to that of chlordiazepoxide was measured on rat brain membrane preparation. Male CFY rat cortex was homogenized in 0.32M sucrose using glass homogenizer with teflon pestle. Nucleus was spun down at 1000 g for 15 min. The supernatant was centrifuged at 40,000 g for 15 min. The pellet was homogenized in 5 mM TRIS-citrate buffer pH 7.1 by a Polytron P10 and it was lyzed for 15 min. at 0° C. After centrifugation at 40,000 g for 15 min. the pellet was taken up in 50 mM TRIS-citrate buffer pH 7.1 and kept overnight at -20° C. After thawing and centrifugation (40,000 g for 15 min.) the pellet was washed in 50 mM TRIS-citrate buffer pH 7.1 three times by centrifugation. The final pellet was taken up in the same buffer in 1:30 volume. Ligand: 2 nM ^3 H-Diazepam (sp. act. 86 Ci/mmol).
Incubation: 1 hr at 0°-4° C. in 50 mM TRIS-citrate buffer ph 7.1
Final protein concentration: ca. 0.5 mg/ml.
The binding was stopped by dilution with cold buffer and rapid filtration on GF/B Whatman filter paper.
For the displacement we used six different concentrations of drugs, run with 3 parallels. Experiments were repeated two times. Compound A was dissolved in cc. acetic acid and distilled water then the 10^-3 M solution was further diluted with incubation buffer. Blank solution was prepared in the same way without containing the drug. Chlordiazepoxide was dissolved in the incubation buffer.

[5] = Acute toxicity, oral LD50; details: rat, in vivo, CFY rats, deaths within 48 h, Litchfield and Wilcoxon
Method: Acute toxicity was assessed on CFY rats (100-160 g). Groups of 10 rats were used. Compound A was administered orally (in volume of 10 ml/kg). The animals starved for 16 h before the experiment. Each dose was administered to a group of animals equally subdivided into males and females. Deaths occurring within 48 h were considered. LD50 values were calculated on the basis of the graphical method of Litchfield and Wilcoxon.

[6] = chlordiazepoxide 0.05 mg/kg s.c.
[7] = chlordiazepoxide 0.1 mg/kg s.c.
[8] = chlordiazepoxide 0.25 mg/kg s.c.
[9] = chlordiazepoxide 0.5 mg/kg s.c.
[10] = chlordiazepoxide 2.5 mg/kg s.c.
[11] = up to the oral dose of 200 mg/kg, rats
[12] = pretreatment 200 mg/kg, 120 mg/kg s.c. pentametazol

With `CN1C(=O)CN=C(c2ccccc2)c2cc(Cl)ccc21` [diazepam] the “Rats whose life was saved” value ([1]; electroshock-induced lethal convulsions, dose not given) was 80%, the Animals died ([2]; 10 mg/kg, strychnine 2.5 mg/kg s.c.) was 80% and the “Deaths of pretreated animals” value [3] was “none of the pretreated animals died”. For the same compound, the “Effect on pentametazol convulsions” value [3] was “mitigated the convulsions”.

In the case of `CCC1(c2ccccc2)C(=O)NC(=O)NC1=O` [phenobarbital Na], the Animals died ([4]; 50 mg/kg, picrotoxin 10 mg/kg s.c.) is reported as 80%, the “Protection against electrogenic convulsions” value ([1]; 30-50 mg/kg) is reported as “completely protected” and the Animals died ([2]; 50 mg/kg, strychnine 2.5 mg/kg s.c.) is reported as 40%. For the same compound, the “Deaths of pretreated animals” value [3] was “none of the pretreated animals died” and the “Effect on pentametazol convulsions” value [3] was “mitigated the convulsions”.

In the case of `CNC1=Nc2ccc(Cl)cc2C(c2ccccc2)=[N+]([O-])C1` [chlordiazepoxide], the “Water consumption (ml) in punished situation” value (Male CFY rats; Table II: chlordiazepoxide 0.1 mg/kg s.c. + RO 15-1788 5 mg/kg i.p.) is reported as 4.1 ± 0.59 mL, the “Water consumption (ml) in punished situation” value (Male CFY rats; Table II: chlordiazepoxide 0.1 mg/kg s.c. + RO 15-1788 10 mg/kg i.p.) is reported as 3.9 ± 0.43 mL and the “Water consumption (ml) in punished situation” value (Male CFY rats; Table II: chlordiazepoxide 0.1 mg/kg s.c. + RO 15-1788 20 mg/kg i.p.) is reported as 2.8 ± 0.49 mL. The “Water consumption (ml) in punished situation” value (Male CFY rats; Table II: chlordiazepoxide 0.1 mg/kg s.c., RO 15-1788 none) was 4.1 ± 0.31 mL, the “Sedative dose (numerator of ratio)” value (Male CFY rats) was 10 and the “Water consumption (ml) punished situation” value (Male CFY rats; [6]) was 3.5 ± 0.47 mL. The “Water consumption (ml) without punishment” value (Male CFY rats; [6]) was 5.1 ± 0.56 mL, the “Water consumption (ml) punished situation” value (Male CFY rats; [7]) was 4.1 ± 0.31 mL and the “Water consumption (ml) without punishment” value (Male CFY rats; [7]) was 5.8 ± 0.42 mL. For the same compound, the “Water consumption (ml) punished situation” value (Male CFY rats; [8]) was 3.5 ± 0.62 mL, the “Water consumption (ml) without punishment” value (Male CFY rats; [8]) was 6.2 ± 0.37 mL and the “Water consumption (ml) punished situation” value (Male CFY rats; [9]) was 3.1 ± 0.54 mL. For the same compound, the “Water consumption (ml) without punishment” value (Male CFY rats; [9]) was 7.4 ± 0.77 mL, the “Water consumption (ml) punished situation” value (Male CFY rats; chlordiazepoxide 1 mg/kg s.c.) was 2.7 ± 0.58 mL and the “Water consumption (ml) without punishment” value (Male CFY rats; chlordiazepoxide 1 mg/kg s.c.) was 5.4 ± 0.68 mL. The “Water consumption (ml) punished situation” value (Male CFY rats; [10]) was 4.1 ± 0.39 mL, the “Water consumption (ml) without punishment” value (Male CFY rats; [10]) was 5.2 ± 0.72 mL and the “Water consumption (ml) punished situation” value (Male CFY rats; chlordiazepoxide 5 mg/kg s.c.) was 2.5 ± 0.31 mL. For the same compound, the “Water consumption (ml) without punishment” value (Male CFY rats; chlordiazepoxide 5 mg/kg s.c.) was 5.4 ± 0.62 mL, the “Water consumption (ml) punished situation” value (Male CFY rats; chlordiazepoxide 10 mg/kg s.c.) was 1.6 ± 0.26 mL and the “Water consumption (ml) without punishment” value (Male CFY rats; chlordiazepoxide 10 mg/kg s.c.) was 1.8 ± 0.30 mL. For the same compound, the “Ratio between the sedative and anxiolytic dose” value (Male CFY rats; conflict test) was 100, the “Anxiolytic effect in presence of RO-15-1788 (selective benzodiazepine receptor antagonist)” value (Male CFY rats; conflict test) was “antagonized” and the Sedative dose range (Male CFY rats; subcutaneous, conflict test, unpunished rats) was 10 mg/kg. For the same compound, the “Displacement of 3H-Diazepam from its receptor” value (benzodiazepine receptors) was “concentration dependent manner” and the IC50 value (benzodiazepine receptors) was “in the same range of concentration”.

In the case of `CCSc1c(N)cnc2cc(Cl)ccc12.Cl` [compound A, 3-amino-4-ethylthio-7-chloro-quinoline-hydrochloride], the “Water consumption (ml) in punished situation” value (Male CFY rats; Table IV: compound A 5 μg/kg s.c. + RO 15-1788 10 mg/kg i.p.) is reported as 3.1 ± 0.69 mL, the “Water consumption (ml) in punished situation” value (Male CFY rats; Table IV: compound A 5 μg/kg s.c. + RO 15-1788 20 mg/kg i.p.) is reported as 2.4 ± 0.39 mL and the “Water consumption (ml) in punished situation” value (Male CFY rats; Table IV: compound A 5 μg/kg s.c., RO 15-1788 none) is reported as 4.2 ± 0.37 mL. For the same compound, the “Sedative dose (numerator of ratio)” value (Male CFY rats) was 2.5, the “Water consumption (ml) punished situation” value (Male CFY rats; compound A 0.25 mg/kg s.c.) was 3.0 ± 0.27 mL and the “Water consumption (ml) without punishment” value (Male CFY rats; compound A 0.25 mg/kg s.c.) was 7.7 ± 0.45 mL. The “Water consumption (ml) punished situation” value (Male CFY rats; compound A 2.5 mg/kg s.c.) was 1.9 ± 0.35 mL, the “Water consumption (ml) without punishment” value (Male CFY rats; compound A 2.5 mg/kg s.c.) was 4.9 ± 0.91 mL and the “Water consumption (ml) punished situation” value (Male CFY rats; compound A 2.5 γ/kg s.c.) was 2.2 ± 0.32 mL. The “Water consumption (ml) without punishment” value (Male CFY rats; compound A 2.5 γ/kg s.c.) was 6.3 ± 0.46 mL, the “Water consumption (ml) punished situation” value (Male CFY rats; compound A 5 γ/kg s.c.) was 3.8 ± 0.19 mL and the “Water consumption (ml) without punishment” value (Male CFY rats; compound A 5 γ/kg s.c.) was 6.4 ± 0.33 mL. For the same compound, the “Water consumption (ml) punished situation” value (Male CFY rats; compound A 25 γ/kg s.c.) was 3.7 ± 0.44 mL, the “Water consumption (ml) without punishment” value (Male CFY rats; compound A 25 γ/kg s.c.) was 7.9 ± 0.58 mL and the “Anti-anxiety potency relative to chlordiazepoxide” value (Male CFY rats; conflict test) was “about 20 times”. The “Ratio between the sedative and anxiolytic dose” value (Male CFY rats; conflict test) was 500, the “Anxiolytic effect in presence of RO-15-1788 (selective benzodiazepine receptor antagonist)” value (Male CFY rats; conflict test) was “antagonized” and the “Influence on picrotoxin induced lethal convulsions” value ([4]; pretreated rats, picrotoxin 10 mg/kg s.c.) was “remained unchanged”. The “Protection against picrotoxin induced convulsions” value [4, 11] was “ineffective”, the “Displacement of 3H-Diazepam from its receptor” value (benzodiazepine receptors) was “concentration dependent manner” and the IC50 value (benzodiazepine receptors) was “in the same range of concentration”. For the same compound, the Animals died ([1]; 200 mg/kg, electroshock-induced lethal convulsions) was 70%, the “Protection against electroshock-induced convulsions” value [1, 11] was “only slightly effective” and the LD50 at 48 h [5] was 465 mg/kg. The “Influence on strychnine induced lethal convulsions” value ([2]; up to the 200 mg/kg dose level, strychnine 2.5 mg/kg s.c.) was “not influenced at all”, the “Protection against strychnine induced convulsions” value [2, 11] was “ineffective” and the “Influence on the anticonvulsant effect of diazepam (10 mg/kg)” value ([3]; compound A 200 mg/kg) was “no influence”. The “Severity of the pentametazol convulsions” value [3, 12] was “did not change”, the “Survival of pretreated animals” value [3, 12] was “none of the pretreated animals survived” and the “Protection against pentametazol induced convulsions” value [3, 11] was “ineffective”.
